Measured values published in patent US4409232A, “Substituted oxadiazoles, method for the production thereof, compositions containing them and method of use thereof” (priority 1980, dated 1983).
Entries after “also recorded” stand apart in the source; their conditions may differ.

Assays:
[1] = Local anesthetic action
[2] = system: beta-agonistic action (heart frequency); experiment: Intrinsic sympathomimetic activity (ISA): increase of heart frequency in reserpinized rats relative to isoprenaline; format: in vivo, rat; conditions: for ISA % isoprenaline action: increase of heart frequency, reserpinized rats, isoprenaline maximum = 100%
Description: ISA: "Intrinsic sympathomimetic activity" (betaa -agonistic action). The percent increase of the heart frequency which is induced by a substance, referred to the maximum reaction of isoprenaline (100%). The measurements are carried out on reserpinolized rats which no longer show a sympathic tonus.

[3] = system: beta-adrenolytic action; experiment: Half-life of the beta-adrenolytic action in rabbits after i.v. application; format: in vivo, rabbit; conditions: for t1/2 of beta-adrenolytic action: rabbits, i.v., time at which action has decreased to one half
Text: […] : Time at which the beta-adrenolytic action of a substance in rabbits after i.v. application has decreased to one half.

[4] = target: T1, beta-adrenoceptor (trachea) (Cavia porcellus, UniProt Q8K4Z4); experiment: pA2 as beta-adrenoceptor blocker on isolated guinea pig trachea; format: cell-based
T1 construct: As test tissue are used the atrium and trachea of guinea pigs; from tissue; host or cells: isolated guinea pig trachea
T1 sequence (Q8K4Z4 whole entry): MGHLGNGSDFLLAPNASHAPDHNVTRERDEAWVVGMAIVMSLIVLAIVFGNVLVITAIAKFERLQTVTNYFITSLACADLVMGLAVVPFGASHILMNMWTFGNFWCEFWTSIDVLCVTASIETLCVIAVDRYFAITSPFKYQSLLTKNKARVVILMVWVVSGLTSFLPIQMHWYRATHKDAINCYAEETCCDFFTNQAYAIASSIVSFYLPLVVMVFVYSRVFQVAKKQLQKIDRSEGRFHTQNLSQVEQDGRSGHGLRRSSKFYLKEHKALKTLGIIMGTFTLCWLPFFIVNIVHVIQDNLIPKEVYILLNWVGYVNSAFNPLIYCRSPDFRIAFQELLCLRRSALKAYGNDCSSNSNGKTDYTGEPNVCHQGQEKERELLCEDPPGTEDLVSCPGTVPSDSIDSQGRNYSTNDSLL
Text: (§1) The terms used in Table 1 are defined as follows (from B. J. Clark: "Pharmacology of beta-adrenoceptor blocking agents" in "beta-Adrenoceptor blocking agents", P. R. Saxena and R. P. Forsyth edition. pA2 The strength of a beta-adrenoceptor blocker. Corresponds to the negative logarithm of the molar concentration of an antagonist which requires a doubling of the molar concentration of the agonist to achieve a given effect on isolated tissue. As test tissue are used the atrium and trachea of guinea pigs.

[5] = target: T2, beta-adrenoceptor (atrium) (Cavia porcellus, UniProt H0W3H1); experiment: pA2 as beta-adrenoceptor blocker on isolated guinea pig atrium; format: cell-based
T2 construct: As test tissue are used the atrium and trachea of guinea pigs; from tissue; host or cells: isolated guinea pig atrium
T2 sequence (H0W3H1 1-470): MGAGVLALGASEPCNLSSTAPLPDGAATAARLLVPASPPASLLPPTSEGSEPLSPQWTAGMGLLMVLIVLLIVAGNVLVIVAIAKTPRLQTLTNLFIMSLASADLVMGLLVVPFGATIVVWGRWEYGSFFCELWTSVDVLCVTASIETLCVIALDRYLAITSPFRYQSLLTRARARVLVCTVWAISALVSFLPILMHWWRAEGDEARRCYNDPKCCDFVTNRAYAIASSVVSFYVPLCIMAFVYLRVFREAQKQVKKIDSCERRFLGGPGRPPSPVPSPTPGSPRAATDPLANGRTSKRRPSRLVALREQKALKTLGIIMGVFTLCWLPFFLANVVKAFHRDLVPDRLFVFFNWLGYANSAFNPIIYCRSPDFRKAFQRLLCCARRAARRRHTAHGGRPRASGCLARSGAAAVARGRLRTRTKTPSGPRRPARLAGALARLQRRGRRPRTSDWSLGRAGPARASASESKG
Text: as §1

[6] = system: β1 receptors of the heart versus β2 receptors (atrium / trachea); experiment: Cardioselectivity: antilog pA2 (atrium)-pA2 (trachea); format: cell-based, guinea pig; conditions: for Cardioselectivity antilog pA2 (A)-pA2 (T): antilog of pA2 (atrium) - pA2 (trachea), guinea pig; for cardioselectivity (in words): qualitative statement
Text: Most commercial β-adrenolytics of similar structure influence both β1 and β2 receptors; that is, they inhibit the effect of the sympathetic nervous system on the heart as well as on the peripheral blood vessels or the bronchial muscles. Blocking of the β2 receptors leads to an increase in tonus of the smooth muscle with broncho spasms and increased resistance of the peripheral vessels. […] This is because β2 receptor-blocking substances are not to be administered in bronchial diseases (such as asthma) because of their broncho-constrictive action. However, treatment of […].
pA2 The strength of a beta-adrenoceptor blocker. Corresponds to the negative logarithm of the molar concentration of an antagonist which requires a doubling of the molar concentration of the agonist to achieve a given effect on isolated tissue. As test tissue are used the atrium and trachea of guinea pigs.
Cardioselectivity: antilog pA2 (atrium)-pA2 (trachea)

Row | Compound | Local anesth. action [1] | ISA % isoprenaline action [2] | t1/2 of beta-adrenolytic action [3] | Kb [4] | agonistic / isoprenaline action (in words) ([2]; qualitative statement) | Kb [5] | Cardioselectivity antilog pA2 (A)-pA2 (T) [6] | cardioselectivity (in words) [6] | half-life (in words) ([3]; qualitative statement) | cardioselectivity (in words) ([6]; listed as (c))
1 | CCCC(=O)Nc1ccc(OCC(O)CNC(C)C)c(C(C)=O)c1 (centres unmarked) [Comparison Substance 1, Acebutolol, reference compound] | present | 27% | 1.6 h | 9770 nM |  |  |  |  |  | 
2 | CC(C)(C)NCC(O)COc1ccccc1-c1nnco1 (centres unmarked) [Comparison Substance 2, 2-[2-(2-hydroxy-3-tert.butylamino-propoxy)-phenyl]-1,3,4-oxadiazole, reference compound] | 0 | 79% |  | 158 nM | high isoprenaline action | 50.1 nM | 3 |  |  | 
3 | CC(=O)Nc1ccc(OCC(O)CNC(C)(C)C)c(-c2nnco2)c1 (centres unmarked) [Example 1, 2-[2-(2-hydroxy-3-tert.-butylamino-propoxy)-5-acetamido-phenyl]-1,3,4 oxadiazole] | 0 | 0% | 5 h | 4170 nM |  | 209 nM | 17 | preferred for their selectivity |  | 
4 | CCCCCCC(=O)Nc1ccc(OCC(O)CNC(C)(C)C)c(-c2nnco2)c1 (centres unmarked) [Example 2, 2-[2-(2-hydroxy-3-tert.-butylamino-propoxy)-5-n-heptanoylaminophenyl]-1,3,4oxadiazole] | 0 | 0% | 3.5 h | 1260 nM |  | 50.1 nM | 25 |  | particularly long half-life | preferred for their selectivity; also recorded: highly selectively active
5 | CCCCCCCC(=O)Nc1ccc(OCC(O)CNC(C)(C)C)c(-c2nnco2)c1 (centres unmarked) [Example 4, 2-[2-(2-hydroxy-3-tert.-butylamino-propoxy)-5-n-octanoylaminophenyl]-1,3,4 oxadiazole] | 0 | 0% |  | 1260 nM |  | 39.8 nM | 32 | preferred for their selectivity |  | 
6 | CCCCCCCCC(=O)Nc1ccc(OCC(O)CNC(C)(C)C)c(-c2nnco2)c1 (centres unmarked) [Example 5, 2-[2-(2-hydroxy-3-tert.-butylamino-propoxy)-5-n-nonanoylaminophenyl]-1,3,4 oxadiazole] |  |  |  |  |  |  |  | preferred for their selectivity |  | 
7 | CCCCCCCCCC(=O)Nc1ccc(OCC(O)CNC(C)(C)C)c(-c2nnco2)c1 (centres unmarked) [Example 6, 2-[2-(2-hydroxy-3-tert.-butylamino-propoxy)-5-n-decanoylamino-phenyl]-1,3,4oxadiazole] | 0 | 0% |  | 1580 nM |  | 79.4 nM | 20 | preferred for their selectivity |  | 
